The conditions of data set [1]: irinotecan, SN-38 and APC, following administration.
In the next data set the test system is Rh18 rhabdomyosarcoma. Briefly: Combination study against Rh18 rhabdomyosarcoma xenografts. The format is in vivo, mice.
Another data set is described as follows: in vivo. The following applies: mouse.
Data set [2] concerns NB-SD neuroblastoma xenografts. The data set can be described thus: Combination study against NB-SD neuroblastoma xenografts. The format is in vivo, mice.
The conditions of data set [3]: same total dose given over 10 days versus over 5 days or as a single administration; cited from earlier work.
A further data set has as its system NB-1771 tumors. Briefly: Combination study against NB-1771 xenografts. The format is in vivo, mice. An excerpt:
It has been have shown that the antitumor activity of camptothecins is highly schedule dependent. […] To determine whether there was similar schedule-dependency for temozolomide, the antitumor activity of this agent was examined when given daily for 5 days, 2×5 days per 21 day cycle or 3×5 days per 28 day cycle. See, as incorporated by reference, Houghton, P. J. et al., Clinical Cancer Res. Vol. 6, 4110-4118, October 2000. The total dose per cycle was constant. […] In this experiment mice received a cumulative dose of 210 mg/kg per cycle. Mice received 3 cycles of treatment (total cumulative dose was 630 mg/kg).

Data set [4] concerns five other xenograft lines. Briefly: Schedule dependence of temozolomide in five other xenograft lines. The format is in vivo, mice.
Method: To determine whether there was similar schedule-dependency for temozolomide, the antitumor activity of this agent was examined when given daily for 5 days, 2×5 days per 21 day cycle or 3×5 days per 28 day cycle. […] The total dose per cycle was constant. […] In this experiment mice received a cumulative dose of 210 mg/kg per cycle. Mice received 3 cycles of treatment (total cumulative dose was 630 mg/kg).
A further data set concerns NB-1382 xenografts. The data set can be described thus: Schedule dependence of temozolomide against NB-1382 xenografts. The format is in vivo, mice. The procedure:
It has been have shown that the antitumor activity of camptothecins is highly schedule dependent. […] The total dose per cycle was constant. […] In this experiment mice received a cumulative dose of 210 mg/kg per cycle.

The test system of data set [5] is glioblastoma line, SJ-GBM2.
Method: To determine whether there was similar schedule-dependency for temozolomide, the antitumor activity of this agent was examined when given daily for 5 days, 2×5 days per 21 day cycle or 3×5 days per 28 day cycle. […] The total dose per cycle was constant. […] Mice received 3 cycles of treatment (total cumulative dose was 630 mg/kg).
For another data set, the system named is advanced melanoma. The following applies: cited from earlier work.

In the case of `CCc1c2c(nc3ccc(O)cc13)-c1cc3c(c(=O)n1C2)COC(=O)[C@]3(O)CC` [SN-38], in [1], the apparent tmax is 15 min.

With `CCc1c2c(nc3ccc(OC(=O)N4CCC(N5CCCCC5)CC4)cc13)-c1cc3c(c(=O)n1C2)COC(=O)[C@]3(O)CC` [irinotecan, 7-ethyl-10-(4-[1-piperidino)-1-piperidino]-carbonyloxy-camptothecin], the tumor response result is reported as “few CRs” in the data set with Rh18 rhabdomyosarcoma (CPT-11 alone at the doses used in the combination), “tumors progressed” in data set [2] (CPT-11 alone at 0.4 mg/kg) and “an occasional CR” in the data set on NB-1771 tumors (CPT-11 alone at 0.61 mg/kg). This compound also registered an AUC(0-inf) in the data set “in vivo” of 1820 ng·h/mL. Moreover, the Cmax in “in vivo” is 1240 ng/mL. Further, in the data set “in vivo”, the Tmax is 30 min. For the same compound, the “antitumor activity by schedule” value in [3] is “significantly more active”. For the same compound, the “tumor status at week 12” value in the data set on NB-1771 tumors (CPT-11 alone at 1.25 or 0.61 mg/kg) is “all tumors had progressed”.

For `CCc1c2c(nc3ccc(OC(=O)N4CCC(NCCCCC(=O)O)CC4)cc13)-c1cc3c(c(=O)n1C2)COC(=O)[C@]3(O)CC` [APC], the apparent tmax in data set [1] came out at 60 min.

For `Cn1nnc2c(C(N)=O)ncn2c1=O` [temozolomide, 3,4-dihydro-3-methyl-4-oxoimidazo-[5,1-d]1,2,3,4-tetrazin-8-carboximide], in the data set on Rh18 rhabdomyosarcoma (temozolomide as a single agent), the “sensitivity of xenograft to single agent” value is reported as “poorly sensitive”. Besides, in the data set “in vivo”, the AUC(0-inf) came out at 47000 ng·h/mL. In the data set “in vivo”, the Cmax was 36000 ng/mL. Moreover, in the data set “in vivo”, the time of peak concentration (Tmax) is 30 min. Moreover, the “activity of most intensive schedule (daily for 5 consecutive days per cycle) compared to the other schedules” value in [4] (all experiments) is given as “either more active or equally active”. The schedule-dependent antitumor activity entry in data set [4] (five other xenograft lines (data not shown)) is “Far less schedule-dependent antitumor activity”. Further, the tumor response result was “little activity” in data set [2] (temozolomide alone at tolerated dose levels); “progressively less effective” in the data set on NB-1382 xenografts (lower doses given over more protracted periods (2x5 days per 21 day cycle, 3x5 days per 28 day cycle), same total dose per cycle); “CRs were achieved in all mice, and were maintained at week 12” in the data set with NB-1382 xenografts (temozolomide given over 5 days, 42 mg/kg/dose, 210 mg/kg per cycle, 3 cycles); “some PRs, and an occasional CR” in data set [5] (temozolomide alone at 66 or 42 mg/kg, during the 8 weeks of treatment). Further, the “overall effect of treatment” value in [5] (temozolomide alone at 42 mg/kg, tumor volume at end of treatment similar to initiation) is on record as “stasis”. Besides, the toxicity entry in data set [5] (temozolomide alone, higher dose level (66 mg/kg)) is on record as “lethal during cycle 3 of treatment”. In addition, in the data set on advanced melanoma (patients having advanced melanoma, Newlands et al., Br. J Cancer 1992), the “clinical responses, % of patients” value is 17%. Besides, in the data set on advanced melanoma (patients with advanced melanoma, Journal of Clinical Oncology 1995), the “clinical response, % of patients” value is 21%. In addition, the “sensitivity of tumors to single agent” value in the data set on NB-1771 tumors (temozolomide as a single agent) is “relatively sensitive”.
